Results on 5 molecules are retold here after USRE43390E1, “Pleuromutilin derivatives as antimicrobials” (GlaxoSmithKline LLC, priority 1997, dated 2012).

SMILES strings stand for the structures.

Common to all, as to assay: antibacterial activity, MIC by standard broth dilution method in microtitre
Common to all, as to format: cell-based
For orientation: Dilution methods test growth across graded concentrations, often in twofold steps.

Assay [1] deals with Staphylococcus aureus Oxford. Conditions: S.a. = Staphylococcus aureus Oxford. How it is done:
(§1) The following Table illustrates the antibacterial activities of representative mutilin 14-esters. Activities are given as minimum inhibitory concentrations in micrograms per milliliter (10^−6 g/ml), and were determined using a standard broth dilution method in microtitre.

The test system of assay [2] is Streptococcus pneumoniae 1629. Conditions: S.p. = Streptococcus pneumoniae 1629. The protocol: as §1
The test system of assay [3] is Morazella catarrhalis Ravasio. Conditions: M.c. = Morazella catarrhalis Ravasio. The protocol: as §1
For assay [4], the system named is Haemophilius influenzae Q1. Particulars: H.i. = Haemophilius influenzae Q1. How it is done:
as §1

Assay [5] concerns Escherichla coli DCU. Particulars: E.c. = Escherichla coli DCU. The protocol:
as §1

Consider `C=C[C@]1(C)C[C@@H](OC(=O)CSC2CCN(C)CC2)[C@]2(C)[C@H](C)CC[C@]3(CCC(=O)[C@H]32)[C@@H](C)[C@@H]1O` [Example 15, Mutilin-14-(1-methylpiperid-4-ylsulfanyl)-acetate], for which the minimum inhibitory concentrations entry was “≦0.06 micrograms per milliliter” in assay [1]; “≦0.06 micrograms per milliliter” in assay [2]; “≦0.06 micrograms per milliliter” in assay [3]; 0.5 micrograms per milliliter in assay [4]; 64 micrograms per milliliter in assay [5].
With `C=C[C@]1(C)C[C@@H](OC(=O)CSC23CCN(CC2)CC3)[C@]2(C)[C@H](C)CC[C@]3(CCC(=O)[C@H]32)[C@@H](C)[C@@H]1O` [Example 1, Mutilin 14-(quinuclidin-4-yl-sulfanyl)-acetate], the minimum inhibitory concentrations entry in assay [1] is given as “≦0.06 micrograms per milliliter”; in assay [2] it was “≦0.06 micrograms per milliliter”; in assay [3] it was “≦0.06 micrograms per milliliter”; in assay [4] it was 0.25 micrograms per milliliter; in assay [5] it was 16 micrograms per milliliter.
For `C=C[C@]1(C)C[C@@H](OC(=O)CSC2CC3CCC(C2)N3C)[C@]2(C)C(C)CC[C@]3(CCC(=O)[C@H]32)[C@@H](C)[C@@H]1O` (stereo partly drawn) [Example 50, Mutilin 14-(exo-8-methyl-8-azabicyclo[3.2.1]oct-3-ylsulfanyl)-acetate], the minimum inhibitory concentrations result was “≦0.06 micrograms per milliliter” in assay [1]; “≦0.06 micrograms per milliliter” in assay [2]; “≦0.06 micrograms per milliliter” in assay [3]; 0.5 micrograms per milliliter in assay [4]; 32 micrograms per milliliter in assay [5].
As for `C=C[C@]1(C)C[C@@H](OC(=O)CSCCN(CC)CC)[C@]2(C)[C@H](C)CC[C@]3(CCC(=O)[C@H]32)[C@@H](C)[C@@H]1O` [Tiamulia, Tiamulin, reference compound], the minimum inhibitory concentrations in assay [1] is listed as 0.25 micrograms per milliliter; in assay [2], 0.25 micrograms per milliliter; in assay [3] it was 0.125 micrograms per milliliter; in assay [4], 2 micrograms per milliliter; in assay [5], above 64 micrograms per milliliter.
Turning to `C=C[C@]1(C)C[C@@H](OC(=O)CO)[C@]2(C)[C@H](C)CC[C@]3(CCC(=O)[C@H]32)[C@@H](C)[C@@H]1O` [Pleuomutilin, Pleuromutilin], the minimum inhibitory concentrations in assay [1] is recorded as 2 micrograms per milliliter; in assay [2] it was 8 micrograms per milliliter; in assay [3] it was 0.5 micrograms per milliliter; in assay [4], 2 micrograms per milliliter; in assay [5] it was above 64 micrograms per milliliter.
